Assay results from US7358359B2, “Antibacterial agents” (University of Washington, priority 2003, dated 2008).
One block for each molecule: values may come before it.

Assays:
P. aeruginosa 27853 = experiment: MIC broth microdilution, standard panel: P. aeruginosa 27853; assay type: cell-based; details: Pseudomonas aeruginosa, standard panel of organisms
Description: (§1) Bacterial isolates were cultivated from −70° C. frozen stocks by two consecutive overnight passages at 35° C. in ambient air on 5% blood agar (Remel, Lenexa, Kans.). Clinical isolates tested were from a collection composed of isolates collected during clinical trials and recent clinical isolates obtained from various geographically diverse hospitals in the US. Quality control and primary panel strains were from the American Type Culture Collection (ATCC; Rockville, Md.), with the exception of P. aeruginosa PAO200, a strain with a deletion of the mexABoprM genes that was received from Dr. H. Schweizer. […] Strain Z61 (ATCC 35151) is also hypersusceptible to antibacterials. It is thought that the hypersusceptibility of this strain is the result of increased permeability of its outer membrane (Angus B L et al, Antimicrobial Agents and Chemotherapy 1982 21,299-309: Outer membrane permeability in Pseudomonas aeruginosa: Comparison of a wild-type with an antibacterial-supersusceptible mutant).
(§2) Minimum Inhibitory Concentrations (MICs) were determined by the broth microdilution method in accordance with the National Committee for Clinical Laboratory Standards (NCCLS) guidelines. In brief, organism suspensions were are adjusted to a 0.5 McFarland standard to yield a final inoculum between 3×10^5 and 7×10^5 colony-forming units (CFU)/mL. Drug dilutions and inocula were made in sterile, cation adjusted Mueller-Hinton Broth (Remel). An inoculum volume of 100 μl was added to wells containing 100 μl of broth with 2-fold serial dilutions of drug. All inoculated microdilution trays were incubated in ambient air at 35° C. for 18-24 hours. Following incubation, the lowest concentration of the drug that prevented visible growth was recorded as the MIC. Performance of the assay was monitored by the use of laboratory quality-control strains against tobramycin, that has a defined MIC spectrum, in accordance with NCCLS guidelines.

[1] = system: P. aeruginosa PAO200 mexAB; experiment: MIC broth microdilution, standard panel: P. aeruginosa PAO200 mexAB; assay type: cell-based; details: Pseudomonas aeruginosa, PAO200MEXAB, read-out: MIC P. aeruginosa PAO200 mexAB
Description: as §1, §2

E. coli 25922 = experiment: MIC broth microdilution, standard panel: E. coli 25922; assay type: cell-based; details: Escherichia coli, standard panel of organisms
Description: as §1, §2

S. aureus 29213 = experiment: MIC broth microdilution, standard panel: S. aureus 29213; assay type: cell-based; details: Staphylococcus aureus, standard panel of organisms
Description: as §1, §2

P. aeruginosa LpxC = target: T1, P. aeruginosa LpxC (Pseudomonas aeruginosa, UniProt P47205); experiment: P. aeruginosa LpxC Inhibition Assay; assay type: biochemical; details: 2 nM P. aeruginosa LpxC, 90 min, room temperature; read-out: IC50 (nM), Enzyme inhibitory activity
T1 sequence (P47205 1-303): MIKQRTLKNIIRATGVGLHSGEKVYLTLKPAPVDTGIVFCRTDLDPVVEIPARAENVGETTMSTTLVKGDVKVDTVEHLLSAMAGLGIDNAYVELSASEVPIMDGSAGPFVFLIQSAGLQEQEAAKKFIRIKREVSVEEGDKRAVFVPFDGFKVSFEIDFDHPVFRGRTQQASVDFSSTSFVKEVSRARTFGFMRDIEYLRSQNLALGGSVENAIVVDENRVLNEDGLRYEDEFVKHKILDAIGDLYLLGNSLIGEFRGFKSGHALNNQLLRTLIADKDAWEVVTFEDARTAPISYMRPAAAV
Description: The assay followed the general method of Hyland et al (Journal of Bacteriology 1997 179, 2029-2037: Cloning, expression and purification of UDP-3-O-acyl-GlcNAc deacetylase from Pseudomonas aeruginosa: a metalloamidase of the lipid A biosynthesis pathway) and the radiolabeling procedure is according to Kline et al. supra. Briefly, samples were incubated with 2 nM P. aeruginosa LpxC and 150 nM [3H-Ac]-UDP-3-OR-3-hydroxydecanoyl)-GlcNAc in a total volume of 50 uL for 90 min at room temperature. Reactions were carried out in 96-well polypropylene plates in 50 mM sodium phosphate buffer, pH 7.5, containing 1 mg/mL BSA. Reactions were stopped by the addition of 180 uL of a 3% suspension of activated charcoal powder in 100 mM sodium acetate, pH 7.5. Supernatants were clarified by centrifugation. A portion of the clarified supernatant, containing the enzymatically released [3H]-acetate, was transferred to opaque white 96-well plates containing scintillation fluid. The radioactivity was measured in a Perkin-Elmer/Wallac Trilux Microbeta counter.

SMILES: NC[C@H](NC(=O)c1ccc(C#Cc2ccc(NC(=O)CNc3ccccc3)cc2)cc1)C(=O)NO [Example 572, N-{(1S)-1-(aminomethyl)-2-(hydroxyamino)-2-oxoethyl]-4-[(4-{[(phenylamino)acetyl]amino}phenyl)ethynyl]benzamide]
MIC (P. aeruginosa 27853): < 6.25 µg/mL | MIC [1]: < 6.25 µg/mL | MIC (E. coli 25922): < 6.25 µg/mL | MIC (S. aureus 29213): > 50 µg/mL | IC50 (P. aeruginosa LpxC): < 100 nM

melting point: 64 to 65 °C
SMILES: O=C(NO)[C@H]1[C@H](O)CCN1C(=O)c1ccc(OC(F)(F)F)cc1 [Example 3, (2R,3R)-3-hydroxy-1-{[4-(trifluoromethoxy)phenyl]carbonyl}pyrrolidine-2-carbohydroxamic acid]

SMILES: C[C@@H](O)[C@H](NC(=O)c1ccc(C#Cc2ccc(NC(=O)CNc3cnccn3)cc2)cc1)C(=O)NO [Example 860, N-{(1S,2R)-2-hydroxy-1-[(hydroxyamino)carbonyl]propyl}-4-[(4-{[(pyrazin-2-ylamino)acetyl]amino}phenyl)ethynyl]benzamide]
MIC (P. aeruginosa 27853): < 6.25 µg/mL | MIC [1]: < 6.25 µg/mL | MIC (E. coli 25922): < 6.25 µg/mL | MIC (S. aureus 29213): > 50 µg/mL | IC50 (P. aeruginosa LpxC): < 100 nM
